Structures can show the parent of a compound that is named as a salt.
What was measured:
SYK [1] = target: T1, SYK (Homo sapiens, UniProt P43405); conditions: supplement CSV
CAMK1G = CAMK1G (Homo sapiens, UniProt Q96NX5); conditions: supplement CSV
CAMK2A = CAMK2A (Homo sapiens, UniProt Q9UQM7); conditions: supplement CSV
SYK [2] = target: T1, SYK; assay: biochemical; conditions: read-out: Tm shift SYK
[3] = system: kinase panel (468 Assays Tested); assay: Pan-kinome selectivity, competitive binding assay (KINOMEscan); conditions: for S-Score(35): 1 μM
[4] = system: diet induced obesity mouse model; assay: OGTT in DIO mice, acute dosing study; type: in vivo, male C57Bl/6J mice; conditions: single oral dose of 25 or 50 mg/kg 4 h prior to OGTT, vs vehicle
Protocol: Animals were allocated to dosing groups (6 mice per group) such that groups were balanced as closely as possible for mean body weight. The day prior to the OGTT, all animals were deprived of food (but not water) beginning approximately 16:45. The following morning, the mice were dosed with vehicle or either 10 mg/kg, 25 mg/kg, or 50 mg/kg 18 formulated in a vehicle of DMSO (10% final volume) and 20% (2-hydroxypropyl)-β-cyclodextrin (90% final volume) by the oral route (beginning at 08:45). Four hours after dosing, a blood sample was taken (B1), and 3 min later glucose was administered (2 g/kg orally). Further blood samples were taken 10, 30, 60, and 90 min after glucose administration. Between blood sampling, animals were returned to the home cage with free access to water (but not food). Blood samples (approximately 30 μL) were collected into lithium heparinized tubes (Sarstedt Microvette CB300LH), and plasma was separated by centrifugation to produce a single aliquot of plasma, which was frozen (approximately −80 °C) and subsequently assayed for glucose (in duplicate; Thermoelectron Infinity glucose reagent TR15498) and insulin (single replicate; Alpco mouse ultrasensitive insulin kit 80, INSMSU-E10).

[5] = system: diet induced obesity mouse model; assay: OGTT in DIO mice, chronic (14 day) dosing study; type: in vivo, male C57Bl/6J mice; conditions: twice daily for 14 days (25 mg/kg)
Protocol: Upon completion of the OGTT, all animals were singly housed with food provided as above for 2 weeks prior to the onset of the baseline phase of the chronic study. Upon single housing after the OGTT, mice were placed on a reverse-phase light–dark cycle (lights off 09:30–17:30). Following this period, the animals underwent a 5-day baseline phase where they were dosed twice daily with vehicle at approximately 08:45 and 16:45 each day. Toward the end of the baseline phase mice were reallocated to dosing groups (8 animals per group) such that groups within the study were balanced as closely as possible for body weight, food and water intake, and previous treatment. From day 1 onward, mice were dosed orally twice daily with 25 mg/kg 18 formulated in a vehicle of DMSO (10% final volume) and 20% (2-hydroxypropyl)-β-cyclodextrin (90% final volume) on days 1–6 and 1% methyl cellulose at 5 mL/kg on subsequent days or twice daily orally with vehicle alone or subcutaneously with 0.1 mg/kg liraglutide (Bachem) formulated in pH 7.4 phosphate buffer solution. Oral dosing began at approximately 08:45 and 16:45, with subcutaneous dosing at 08:45 only. […] Plasma glucose and insulin data from the OGTTs were analyzed by robust regression with treatment as a factor and bleeding order and day 1 body weight as covariates. […]

PKNB(M.tuberculosis) = target: T2, PKNB(M.tuberculosis) (Mycobacterium tuberculosis, UniProt P9WI81); assay: KINOMEscan; type: binding
T2 construct: purchased DiscoverX (Eurofins) KINOMEscan scanMAX; first lines in-house DSF / ADP-Glo

[6] = Microsome metabolism (MICs)
[7] = Microsome metabolism (MICs); remark: listed apart in the source
[8] = Microsome metabolism (MICs); remark: listed apart in the source
[9] = Hepatocyte metabolism (Heps); type: in vitro ADME
NGS mice = assay: Tolerability study in NGS mice; type: in vivo; conditions: 40 mg/kg once daily for 21 days, 50:45:5 PEG400/water/ethanol
PAK4 = PAK4 (Homo sapiens, UniProt O96013); conditions: supplement CSV
in vivo = conditions: male, Crl:CD Sprague-Dawley, rat, iv, 2 mg/kg
in vitro [10] = conditions: mouse, plasma
in vitro [11] = conditions: rat, plasma
in vitro [12] = conditions: human, plasma

Chain of CAMK1G (Q96NX5 whole entry): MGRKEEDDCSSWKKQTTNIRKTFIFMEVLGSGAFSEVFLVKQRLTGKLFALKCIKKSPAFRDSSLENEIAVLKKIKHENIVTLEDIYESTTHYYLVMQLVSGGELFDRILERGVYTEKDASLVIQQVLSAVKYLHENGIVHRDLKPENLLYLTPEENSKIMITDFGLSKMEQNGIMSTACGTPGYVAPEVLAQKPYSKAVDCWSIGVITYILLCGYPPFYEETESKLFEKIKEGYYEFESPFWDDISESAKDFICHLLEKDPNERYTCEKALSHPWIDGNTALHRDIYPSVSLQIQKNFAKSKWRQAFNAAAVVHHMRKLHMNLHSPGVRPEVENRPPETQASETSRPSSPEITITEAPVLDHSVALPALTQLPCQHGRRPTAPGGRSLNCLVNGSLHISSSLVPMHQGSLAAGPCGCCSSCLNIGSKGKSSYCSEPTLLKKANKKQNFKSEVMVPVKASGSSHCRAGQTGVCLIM
T2 sequence (P9WI81 whole entry): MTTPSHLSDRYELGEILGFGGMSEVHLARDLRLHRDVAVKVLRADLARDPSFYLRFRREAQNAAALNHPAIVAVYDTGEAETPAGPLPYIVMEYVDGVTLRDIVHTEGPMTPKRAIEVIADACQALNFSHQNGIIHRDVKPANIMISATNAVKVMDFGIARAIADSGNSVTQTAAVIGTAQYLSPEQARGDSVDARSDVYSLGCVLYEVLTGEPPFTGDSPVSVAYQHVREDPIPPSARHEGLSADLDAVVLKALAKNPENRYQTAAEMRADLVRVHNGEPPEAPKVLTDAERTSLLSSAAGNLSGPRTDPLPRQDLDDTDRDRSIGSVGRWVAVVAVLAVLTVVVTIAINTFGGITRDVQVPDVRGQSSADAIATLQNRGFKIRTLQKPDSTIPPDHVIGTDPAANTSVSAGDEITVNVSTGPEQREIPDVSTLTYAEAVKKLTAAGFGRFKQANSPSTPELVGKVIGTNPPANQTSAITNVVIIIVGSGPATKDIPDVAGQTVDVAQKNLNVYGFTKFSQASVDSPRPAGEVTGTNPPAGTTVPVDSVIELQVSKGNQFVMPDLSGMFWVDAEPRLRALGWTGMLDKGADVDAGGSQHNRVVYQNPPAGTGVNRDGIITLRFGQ
Chain of PAK4 (O96013 whole entry): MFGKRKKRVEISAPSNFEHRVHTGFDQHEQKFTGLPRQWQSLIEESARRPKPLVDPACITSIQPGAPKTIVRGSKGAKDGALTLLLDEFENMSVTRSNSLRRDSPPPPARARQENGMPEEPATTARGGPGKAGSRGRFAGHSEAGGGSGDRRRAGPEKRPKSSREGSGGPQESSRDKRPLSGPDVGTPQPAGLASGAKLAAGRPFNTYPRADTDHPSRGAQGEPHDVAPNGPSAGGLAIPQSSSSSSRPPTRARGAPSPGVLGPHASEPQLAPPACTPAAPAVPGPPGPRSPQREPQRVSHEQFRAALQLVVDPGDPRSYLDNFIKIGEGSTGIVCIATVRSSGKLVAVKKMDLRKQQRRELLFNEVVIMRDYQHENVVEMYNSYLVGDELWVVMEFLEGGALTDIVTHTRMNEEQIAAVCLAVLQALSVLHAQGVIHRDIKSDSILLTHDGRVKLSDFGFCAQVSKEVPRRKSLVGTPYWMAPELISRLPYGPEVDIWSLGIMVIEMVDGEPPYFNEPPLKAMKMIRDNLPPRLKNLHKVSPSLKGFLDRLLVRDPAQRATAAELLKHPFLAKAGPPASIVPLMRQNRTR
Chain of CAMK2A (Q9UQM7 whole entry): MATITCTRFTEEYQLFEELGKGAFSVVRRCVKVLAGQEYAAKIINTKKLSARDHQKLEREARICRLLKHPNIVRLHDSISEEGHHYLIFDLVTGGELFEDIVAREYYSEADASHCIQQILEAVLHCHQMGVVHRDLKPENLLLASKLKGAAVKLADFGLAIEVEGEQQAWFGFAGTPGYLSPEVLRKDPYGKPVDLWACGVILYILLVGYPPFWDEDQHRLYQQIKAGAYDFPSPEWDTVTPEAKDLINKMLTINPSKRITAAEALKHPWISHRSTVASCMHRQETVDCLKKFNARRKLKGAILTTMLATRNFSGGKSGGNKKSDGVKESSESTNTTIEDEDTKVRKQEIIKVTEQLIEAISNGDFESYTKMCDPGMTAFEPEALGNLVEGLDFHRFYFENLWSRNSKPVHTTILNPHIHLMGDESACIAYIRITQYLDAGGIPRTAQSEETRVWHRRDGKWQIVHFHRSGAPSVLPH

Row | Structure (SMILES) | SYK Tm (SYK [1]) | CAMK1G Tm (CAMK1G) | CAMK2A Tm (CAMK2A) | ΔTm at 10 µM (SYK [2]) [°C] | S-Score(35) [3] | Interactions Mapped ([3]; 468 Assays Tested) | glucose control and insulin sensitivity in OGTT [4] | baseline glucose and insulin levels, peak glucose following OGTT [5] | glucose AUCB2 [5] | remaining binding at 1 µM (PKNB(M.tuberculosis)) [%] | mouse MICs [6] [μL·min^–1·mg^–1] | rat MICs [7] [μL·min^–1·mg^–1] | human MICs [8] [μL·min^–1·mg^–1] | human Heps [9] [μL·min^–1 per 10^6 cells] | tolerability (NGS mice) | PAK4 Tm (PAK4) | clearance (in vivo) [mL/min/kg] | fraction unbound (in vitro [10]) | fraction unbound (in vitro [11]) | fraction unbound (in vitro [12])
1 | NC(=O)c1cnc(N2CCC[C@@H](N)C2)nc1Nc1cccc(C(F)(F)F)c1 [Compound 7, (R)-2-(3-Aminopiperidin-1-yl)-4-((3-(trifluoromethyl)phenyl)amino)pyrimidine-5-carboxamide Hydrochloride] | 6.82 0C | 6.58 0C | 1.17 0C | 6.82 | – | – | – | – | – | – | – | – | – | – | – | – | – | – | – | –
2 | CC(C)(C#N)c1cc(Nc2nc(N3CCC[C@H](N)C3)ncc2C(N)=O)cc(C(C)(C)C#N)c1 [Compound 18, (S)-2-(3-Aminopiperidin-1-yl)-4-((3,5-bis(2-cyanopropan-2-yl)phenyl)amino)pyrimidine-5-carboxamide Hydrochloride] | – | – | – | – | 0.03 | 23 | improved glucose control and increased insulin sensitivity | reduced baseline glucose and insulin levels, as well as reduced peak glucose levels | no effect | 84 | 15 | < 1 | 13 | – | – | – | – | – | – | –
3 | CC(C)c1cc(Nc2nc(N3CCC[C@H](N)C3)ncc2C(N)=O)cc(C(C)C)n1 [Compound 19, (S)-2-(3-Aminopiperidin-1-yl)-4-((2,6-diisopropylpyridin-4-yl)amino)pyrimidine-5-carboxamide] | – | 16.35 0C | – | – | 0.03 | – | – | – | – | 83 | 6 | 3 | 7 | 19 | no observable adverse effects | 3.31 0C | 36.5 | 0.06 | 0.08 | 0.11

Source: article PMC7445743 (Journal of Medicinal Chemistry, 2020)
